Source: US20240082373A1, “COMPOSITIONS FOR CHIMERIC ANTIGEN RECEPTOR T CELL THERAPY AND USES THEREOF” (priority 2017, published 2024)

What was measured:
FITC-CAR-T = FITC-CAR-T proliferation in lymph nodes after vaccination (CTV-labeled cells); type: in vivo, C57Bl/6 mice; details: adjuvant alone, 25 ug
Description: To assess whether DSPE-PEG-FITC accumulating on lymph node antigen presenting cells would lead to CAR T cell priming and how long this stimulatory effect would last for, at day 1, mice were administered PBS, c-di-GMP (25 ug), DSPE-PEG-FITC (10 nmol), or DSPE-PEG-FITC (10 nmol)+c-di-GMP (25 ug) into wildtype C57Bl/6 mice. After various time points, as indicated in the timeline in FIG. 7A, 2×10^6 CTV-labeled CAR-T cells were transferred into each mouse via tail-vein injection. CAR-T cells were titrated to be a mixture of CAR+ and CAR-cells at 1:1 ratio. After another 48 hours, mice were sacrificed and LNs were removed for FACS analysis.

[1] = Trafficking to and retention in lymph nodes (IVIS imaging); type: in vivo, mice; details: free FITC control
Description: Based on the results of Example 2, it was next determined whether the amphiphilic ligand conjugate DSPE-PEG-FITC could coat antigen presenting cells in lymph nodes (LN) to prime FITC-CAR-T cells in vivo. To assess DSPE-PEG-FITC trafficking to the lymph node and retention and uptake by APCs, C57BIU6 mice received varying doses of DSPE-PEG-FITC. Specifically, inguinal LN, auxiliary LN and lilac LN were harvested 24 hours after administration of 2 nmol, 5 nmol, or 10 nmol doses of DSPE-PEG-FITC was into the tail-veil of the mice. Free FITC was used as control. Mice were sacrificed and LNs were removed at different time point for IVIS imaging (excitation 465 nm, emission 520 nm) to monitor LN retention of FITC signal.
While FITC signal was almost lost at the lowest dose (2 nmol) after 4 days, the signal was retained for more than 21 days at high dose (10 nmol) of DSPE-PEG-FITC (FIG. 3A). Free FITC signal was lost in 24 hours (FIG. 3A).

[2] = mouse, in vivo
Description: One concern was that repeated vaccination may elicit antibody against FITC when conjugated to DSPE-PEG, thus blocking its stimulation to CAR in lymph nodes.

## Nc1nc2c(ncn2[C@@H]2O[C@@H]3COP(=O)(O)O[C@H]4[C@@H](O)[C@H](n5cnc6c(=O)[nH]c(N)nc65)O[C@@H]4COP(=O)(O)O[C@H]3[C@H]2O)c(=O)[nH]1 [c-di-GMP, cyclic-di-GMP]
FITC-CAR-T
  proliferation of CAR-T cells in LN: Minimal proliferation

## fluorescein isothiocyanate [Free FITC]
[1]
  time in which FITC signal was lost in LN: ≤ 24 h

B1: FITC-OVA: FITC conjugated to the carrier protein OVA (conjugate, UniProt P01012 2-386, looked up)
Ovalbumin: GSIGAASMEFCFDVFKELKVHHANENIFYCPIAIMSALAMVYLGAKDSTRTQINKVVRFDKLPGFGDSIEAQCGTSVNVHSSLRDILNQITKPNDVYSFSLASRLYAEERYPILPEYLQCVKELYRGGLEPINFQTAADQARELINSWVESQTNGIIRNVLQPSSVDSQTAMVLVNAIVFKGLWEKAFKDEDTQAMPFRVTEQESKPVQMMYQIGLFRVASMASEKMKILELPFASGTMSMLVLLPDEVSGLEQLESIINFEKLTEWTSSNVMEERKIKVYLPRMKMEEKYNLTSVLMAMGITDVFSSSANLSGISSAESLKISQAVHAAHAEINEAGREVVGSAEAGVDAASVSEEFRADHPFLFCIKHIATNAVLFFGRCVSP
modifications: FITC
[2]
  antibody response against FITC: no antibody response was observed
